The test system of assay [1] is human IgE. In words: Treatment experiment, dogs artificially sensitized with Dermatophagoides farinae: IgG antibody against human IgE (ELISA). The settings on record: beagles artificially sensitized with Dermatophagoides farinae, s.c. 1 mg five times. The format is in vivo. The method, then: Human IgE (Athens Research And Technology, Inc.; IgE, human Myeloma Plasma) was prepared at 1 μg/mL in an immobilization buffer (0.05 M carbonate buffer, pH 9.6), then added at a concentration of 100 μL/well to an ELISA plate, and left overnight at 4° C. The immobilization plate was washed once with PBS-T (0.05%). A blocking solution (4× Block Ace, Snow Brand Milk Products Co., Ltd.; UK-B80) was added thereto at a concentration of 200 μL/well. The plate was blocked by incubation at 37° C. for 1.5 hours. The serum was diluted 1000-fold with a diluent (PBS-T:Block Ace=9:1) and used. The plate was reacted with the serum at 37° C. for 1.5 hours and washed three times with PBS-T (0.05%). An anti-dog IgG antibody (Sheep anti-Dog IgG HRP, Bethyl Laboratories, Inc.; A40-118P) was diluted 2000-fold with a diluent and added thereto as a secondary antibody at a concentration of 100 μL/well. After reaction at 37° C. for 1.5 hours, the plate was washed three times with PBS-T (0.05%). […] Then, the measurement was performed using a plate reader (Bio-Rad Laboratories, Inc.; model 680) (dual: measurement: 450 nm, control: 570 nm). […]
Evaluation: serum was collected, and an IgG antibody against human IgE was assayed by ELISA. […] The IgE antibody against Dermatophagoides farinae was evaluated by ELISA. […]

Assay [2] has as its system human IgE. In words: IgE-specific IgG in serum of dogs given IgE peptide vaccine (ELISA, human IgE immobilized). In kind it is in vivo. The settings on record: dog. On the procedure:
The peptide used was MOUSE CH3-4-17-11 (mouse CH3 region amino acid sequence) (SEQ ID NO: 27). 2 mL (500 μg) of a solution of the peptide (concentration: 250 μg/mL) and 2 mL of a complete adjuvant (DIFCO ADJUVANT COMPLETE FREUND, Becton, Dickinson and Company Japan) were dispensed to microtubes. Liquids (4 mL per animal) emulsified by shaking for 15 minutes in a high-speed shaker were used as IgE peptide vaccines.
The animals used were 1 male and 7 females of 5- to 7-month-old beagles and were divided into an administration group (n=4; 08-33, 08-42, 08-43, and 08-44) and a non-administration group (n=4; 08-45, 08-46, 08-47, and 08-48).
The peptide was administered at days 0 (test start date), 14, and 28 in the first course and further at days 106 and 117 in the second course. The test substance was subcutaneously administered to the necks of the 4 animals in the administration group. The non-administration group was untreated. […]
Each antigenic protein (MOUSE CH3-4-17-11 for peptide-specific IgG assay, and human IgE for IgE-specific IgG assay) was prepared at 1 μg/mL in an immobilization buffer (0.05 M carbonate buffer, pH 9.6), then added at a concentration of 100 μL/well to an ELISA plate, and left overnight at 4° C. […] Then, the measurement was performed using a plate reader (Bio-Rad Laboratories, Inc.; model 680) (dual: measurement: 450 nm, control: 570 nm). […]
(ELISA stands for enzyme-linked immunosorbent assay.)

As to “KKTSVSASQWYTKHHNNATT (listed as Mus musculus) [M4-7-11]”, the “level of the IgG antibody against IgE” value in the assay with human IgE [1] was “confirmed to elevate”.

Regarding “QEKKTSVSASQWYTKHHNNATTSIT (listed as Mus musculus) [MOUSE CH3-4-17-11]”, the “IgE-specific IgG in serum, administration group versus non-administration group” value with human IgE [2] (day 77, p<0.05) is recorded as “significantly higher”. In the assay on human IgE [2] (summary of FIG. 6), the “level of IgG antibody against IgE” value is listed as “increased”.

These data come from patent US9657071B2, “IgE peptide vaccine” (NIPPON ZENYAKU KOGYO CO., LTD., priority 2012, dated 2017).
